Test results reported in paper PMC9030254, “Target Hopping from Protein Kinases to PXR: Identification of Small-Molecule Protein Kinase Inhibitors as Selective Modulators of Pregnane X Receptor from TüKIC Library” (Cells, 2022).

How the values were obtained:
Assay in all cases: Kinase profiling
Type in all cases: biochemical
SRPK2 = molecular target: T1, SRPK2 (Homo sapiens, UniProt P78362)
T1 construct: purchased ProQinase (Freiburg, Germany)
Experimental: (§1) The analysis was performed by ProQinase (Freiburg, Germany).

MARK2 = molecular target: T2, MARK2 (Homo sapiens, UniProt Q7KZI7)
T2 construct: purchased ProQinase (Freiburg, Germany)
T2 sequence (Q7KZI7 whole entry): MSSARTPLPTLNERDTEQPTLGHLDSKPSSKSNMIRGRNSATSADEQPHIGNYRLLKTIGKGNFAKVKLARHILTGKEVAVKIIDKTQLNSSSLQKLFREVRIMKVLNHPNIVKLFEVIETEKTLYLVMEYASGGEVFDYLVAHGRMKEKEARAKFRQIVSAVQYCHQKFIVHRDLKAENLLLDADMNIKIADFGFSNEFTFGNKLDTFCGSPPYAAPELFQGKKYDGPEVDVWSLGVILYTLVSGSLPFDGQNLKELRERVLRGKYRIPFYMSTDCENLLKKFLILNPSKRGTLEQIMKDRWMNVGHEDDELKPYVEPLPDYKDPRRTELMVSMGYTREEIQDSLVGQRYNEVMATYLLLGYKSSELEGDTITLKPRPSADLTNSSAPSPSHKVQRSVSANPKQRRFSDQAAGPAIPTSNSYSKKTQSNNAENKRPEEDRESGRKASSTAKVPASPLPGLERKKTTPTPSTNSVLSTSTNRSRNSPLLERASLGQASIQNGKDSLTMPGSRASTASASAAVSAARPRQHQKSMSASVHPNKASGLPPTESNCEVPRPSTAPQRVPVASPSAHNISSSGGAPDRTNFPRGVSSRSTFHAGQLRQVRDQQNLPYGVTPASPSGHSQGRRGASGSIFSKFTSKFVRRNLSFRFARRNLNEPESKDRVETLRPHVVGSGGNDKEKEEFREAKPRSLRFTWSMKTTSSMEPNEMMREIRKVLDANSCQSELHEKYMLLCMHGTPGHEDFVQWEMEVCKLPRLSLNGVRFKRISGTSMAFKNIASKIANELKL
Experimental: as §1

AMPKalpha1 = molecular target: T3, AMPKalpha1 (Homo sapiens, UniProt Q13131)
T3 construct: purchased ProQinase (Freiburg, Germany)
T3 sequence (Q13131 10-559 limits assumed): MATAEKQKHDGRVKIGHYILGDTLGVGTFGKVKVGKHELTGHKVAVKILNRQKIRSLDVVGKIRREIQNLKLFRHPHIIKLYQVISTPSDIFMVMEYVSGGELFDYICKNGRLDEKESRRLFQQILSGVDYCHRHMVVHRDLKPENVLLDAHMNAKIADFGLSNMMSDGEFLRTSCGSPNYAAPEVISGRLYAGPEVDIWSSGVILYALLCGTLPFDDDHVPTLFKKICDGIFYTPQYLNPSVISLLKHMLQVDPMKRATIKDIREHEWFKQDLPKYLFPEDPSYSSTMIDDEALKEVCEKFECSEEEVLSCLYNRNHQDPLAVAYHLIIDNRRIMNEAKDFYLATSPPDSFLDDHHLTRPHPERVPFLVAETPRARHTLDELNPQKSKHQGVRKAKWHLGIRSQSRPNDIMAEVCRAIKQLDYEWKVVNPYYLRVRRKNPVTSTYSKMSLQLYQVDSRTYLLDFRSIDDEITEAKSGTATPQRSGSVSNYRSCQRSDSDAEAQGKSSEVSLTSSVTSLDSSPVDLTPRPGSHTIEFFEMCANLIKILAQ
Experimental: as §1

CDC42BPB = molecular target: T4, CDC42BPB (Homo sapiens, UniProt Q9Y5S2)
T4 construct: purchased ProQinase (Freiburg, Germany)
T4 sequence (Q9Y5S2 whole entry): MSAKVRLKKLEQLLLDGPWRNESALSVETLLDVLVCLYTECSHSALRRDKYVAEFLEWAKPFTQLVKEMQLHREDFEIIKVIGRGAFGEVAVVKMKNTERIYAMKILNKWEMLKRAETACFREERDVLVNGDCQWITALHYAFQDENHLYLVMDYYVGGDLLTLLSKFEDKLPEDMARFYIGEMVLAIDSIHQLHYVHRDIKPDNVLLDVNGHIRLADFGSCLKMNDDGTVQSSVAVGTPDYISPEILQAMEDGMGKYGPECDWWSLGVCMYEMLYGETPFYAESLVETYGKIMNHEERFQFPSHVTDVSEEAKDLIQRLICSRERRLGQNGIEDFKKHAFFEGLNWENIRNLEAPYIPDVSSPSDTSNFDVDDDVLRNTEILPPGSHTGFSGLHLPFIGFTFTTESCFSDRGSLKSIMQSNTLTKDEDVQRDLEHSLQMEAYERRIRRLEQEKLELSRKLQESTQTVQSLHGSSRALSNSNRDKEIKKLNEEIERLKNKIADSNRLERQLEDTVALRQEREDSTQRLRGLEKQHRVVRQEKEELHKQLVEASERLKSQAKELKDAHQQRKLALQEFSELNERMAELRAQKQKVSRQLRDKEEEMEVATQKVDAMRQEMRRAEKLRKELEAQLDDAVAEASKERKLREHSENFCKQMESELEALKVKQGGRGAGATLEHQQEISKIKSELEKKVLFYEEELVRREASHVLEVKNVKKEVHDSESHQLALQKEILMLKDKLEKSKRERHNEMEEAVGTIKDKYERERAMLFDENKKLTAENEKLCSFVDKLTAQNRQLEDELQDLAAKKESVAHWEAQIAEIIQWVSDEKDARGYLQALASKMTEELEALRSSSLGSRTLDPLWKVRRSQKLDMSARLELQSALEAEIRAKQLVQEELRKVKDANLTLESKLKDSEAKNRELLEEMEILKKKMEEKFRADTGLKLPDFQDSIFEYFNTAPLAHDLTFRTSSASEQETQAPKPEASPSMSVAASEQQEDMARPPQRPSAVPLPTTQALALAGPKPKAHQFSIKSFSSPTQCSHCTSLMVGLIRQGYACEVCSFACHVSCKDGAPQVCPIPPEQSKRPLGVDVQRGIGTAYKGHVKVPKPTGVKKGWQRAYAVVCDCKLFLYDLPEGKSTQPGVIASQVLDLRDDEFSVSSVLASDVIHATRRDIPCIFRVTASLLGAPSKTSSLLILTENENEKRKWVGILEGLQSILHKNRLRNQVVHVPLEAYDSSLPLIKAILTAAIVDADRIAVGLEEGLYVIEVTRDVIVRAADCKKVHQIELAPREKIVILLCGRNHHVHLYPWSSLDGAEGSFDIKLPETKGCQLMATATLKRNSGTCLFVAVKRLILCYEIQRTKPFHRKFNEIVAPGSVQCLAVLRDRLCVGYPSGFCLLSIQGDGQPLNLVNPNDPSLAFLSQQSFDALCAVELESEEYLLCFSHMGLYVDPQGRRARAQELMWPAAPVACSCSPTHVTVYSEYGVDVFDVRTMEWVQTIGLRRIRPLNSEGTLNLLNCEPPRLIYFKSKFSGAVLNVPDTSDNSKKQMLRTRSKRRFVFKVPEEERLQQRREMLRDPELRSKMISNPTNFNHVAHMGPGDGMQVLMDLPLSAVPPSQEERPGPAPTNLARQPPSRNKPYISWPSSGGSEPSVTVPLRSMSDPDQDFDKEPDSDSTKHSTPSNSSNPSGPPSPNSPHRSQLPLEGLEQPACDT
Experimental: as §1

ASK1 = molecular target: T5, ASK1 (Homo sapiens, UniProt Q99683)
T5 construct: purchased ProQinase (Freiburg, Germany)
T5 sequence (Q99683 1-1374): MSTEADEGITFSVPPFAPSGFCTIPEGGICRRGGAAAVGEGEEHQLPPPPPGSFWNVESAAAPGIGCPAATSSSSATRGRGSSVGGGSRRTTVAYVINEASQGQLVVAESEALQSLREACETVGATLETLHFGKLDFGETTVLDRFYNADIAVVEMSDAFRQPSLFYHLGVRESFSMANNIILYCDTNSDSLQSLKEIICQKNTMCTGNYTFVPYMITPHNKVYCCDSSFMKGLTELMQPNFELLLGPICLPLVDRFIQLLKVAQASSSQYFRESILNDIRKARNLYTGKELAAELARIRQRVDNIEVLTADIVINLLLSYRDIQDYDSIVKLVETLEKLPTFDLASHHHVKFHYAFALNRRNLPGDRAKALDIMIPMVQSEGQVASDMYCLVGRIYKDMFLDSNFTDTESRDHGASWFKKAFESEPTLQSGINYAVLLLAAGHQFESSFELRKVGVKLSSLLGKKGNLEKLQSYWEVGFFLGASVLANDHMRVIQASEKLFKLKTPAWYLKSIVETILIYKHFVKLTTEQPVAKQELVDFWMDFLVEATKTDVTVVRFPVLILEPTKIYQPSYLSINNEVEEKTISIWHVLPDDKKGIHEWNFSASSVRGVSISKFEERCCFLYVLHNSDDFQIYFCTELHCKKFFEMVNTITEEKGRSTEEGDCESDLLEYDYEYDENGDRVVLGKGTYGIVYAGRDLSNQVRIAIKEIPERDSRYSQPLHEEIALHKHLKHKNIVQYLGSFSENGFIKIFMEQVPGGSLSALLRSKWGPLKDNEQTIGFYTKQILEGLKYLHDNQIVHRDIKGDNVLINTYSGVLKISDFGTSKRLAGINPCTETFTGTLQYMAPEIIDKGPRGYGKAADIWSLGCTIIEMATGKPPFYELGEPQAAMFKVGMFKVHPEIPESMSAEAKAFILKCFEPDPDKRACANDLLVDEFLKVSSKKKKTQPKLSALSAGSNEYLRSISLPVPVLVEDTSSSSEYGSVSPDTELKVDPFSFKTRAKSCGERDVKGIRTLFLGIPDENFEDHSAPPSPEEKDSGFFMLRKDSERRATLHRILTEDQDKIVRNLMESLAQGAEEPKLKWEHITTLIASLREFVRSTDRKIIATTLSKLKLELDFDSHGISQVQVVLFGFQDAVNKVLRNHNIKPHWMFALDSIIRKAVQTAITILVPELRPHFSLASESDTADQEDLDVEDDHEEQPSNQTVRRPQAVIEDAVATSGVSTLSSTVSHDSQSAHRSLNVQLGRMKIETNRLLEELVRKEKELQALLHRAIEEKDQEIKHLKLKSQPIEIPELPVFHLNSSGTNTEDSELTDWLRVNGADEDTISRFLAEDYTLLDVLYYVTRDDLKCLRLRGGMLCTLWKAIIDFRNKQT
Experimental: as §1

TXK = molecular target: T6, TXK (Homo sapiens, UniProt P42681)
T6 construct: purchased ProQinase (Freiburg, Germany)
T6 sequence (P42681 1-527): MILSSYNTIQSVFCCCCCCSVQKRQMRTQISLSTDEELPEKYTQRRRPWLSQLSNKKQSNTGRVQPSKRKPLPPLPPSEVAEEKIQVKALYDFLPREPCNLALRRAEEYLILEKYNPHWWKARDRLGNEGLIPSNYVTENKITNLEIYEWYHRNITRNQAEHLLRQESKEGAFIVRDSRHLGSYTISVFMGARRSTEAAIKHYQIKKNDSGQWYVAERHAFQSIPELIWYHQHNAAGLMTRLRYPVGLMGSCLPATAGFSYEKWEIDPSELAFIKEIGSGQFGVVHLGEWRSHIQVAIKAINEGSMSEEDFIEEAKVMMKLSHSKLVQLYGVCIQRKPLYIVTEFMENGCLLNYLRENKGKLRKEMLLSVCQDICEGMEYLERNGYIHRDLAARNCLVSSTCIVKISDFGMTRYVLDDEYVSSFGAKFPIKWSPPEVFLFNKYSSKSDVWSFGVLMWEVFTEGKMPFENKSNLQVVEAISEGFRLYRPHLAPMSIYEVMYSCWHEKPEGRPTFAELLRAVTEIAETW
Experimental: as §1

JNK1 = molecular target: T7, JNK1 (Homo sapiens, UniProt P45983)
T7 construct: purchased ProQinase (Freiburg, Germany)
Experimental: as §1

CDK1/CycA2 = molecular target: T8, CDK1/CycA2 (Homo sapiens, UniProt P06493)
T8 construct: purchased ProQinase (Freiburg, Germany)
Experimental: as §1

MAPKAPK5 = molecular target: T9, MAPKAPK5 (Homo sapiens, UniProt Q8IW41)
T9 construct: purchased ProQinase (Freiburg, Germany)
T9 sequence (Q8IW41 1-473): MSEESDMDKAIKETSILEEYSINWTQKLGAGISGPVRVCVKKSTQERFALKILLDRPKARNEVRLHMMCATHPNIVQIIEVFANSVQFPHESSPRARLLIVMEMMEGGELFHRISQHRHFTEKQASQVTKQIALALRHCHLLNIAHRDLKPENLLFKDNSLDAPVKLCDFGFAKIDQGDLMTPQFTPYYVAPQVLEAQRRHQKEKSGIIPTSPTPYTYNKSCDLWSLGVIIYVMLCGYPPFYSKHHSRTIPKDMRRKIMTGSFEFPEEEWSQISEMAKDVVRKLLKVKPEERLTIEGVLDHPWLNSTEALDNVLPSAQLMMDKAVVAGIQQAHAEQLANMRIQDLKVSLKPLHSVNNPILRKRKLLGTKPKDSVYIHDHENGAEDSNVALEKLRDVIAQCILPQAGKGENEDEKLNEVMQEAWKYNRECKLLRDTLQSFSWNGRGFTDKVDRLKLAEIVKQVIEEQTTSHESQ
Experimental: as §1

VEGFR2 = molecular target: T10, VEGFR2 (Homo sapiens, UniProt P35968)
T10 construct: purchased ProQinase (Freiburg, Germany)
T10 sequence (P35968 20-1356): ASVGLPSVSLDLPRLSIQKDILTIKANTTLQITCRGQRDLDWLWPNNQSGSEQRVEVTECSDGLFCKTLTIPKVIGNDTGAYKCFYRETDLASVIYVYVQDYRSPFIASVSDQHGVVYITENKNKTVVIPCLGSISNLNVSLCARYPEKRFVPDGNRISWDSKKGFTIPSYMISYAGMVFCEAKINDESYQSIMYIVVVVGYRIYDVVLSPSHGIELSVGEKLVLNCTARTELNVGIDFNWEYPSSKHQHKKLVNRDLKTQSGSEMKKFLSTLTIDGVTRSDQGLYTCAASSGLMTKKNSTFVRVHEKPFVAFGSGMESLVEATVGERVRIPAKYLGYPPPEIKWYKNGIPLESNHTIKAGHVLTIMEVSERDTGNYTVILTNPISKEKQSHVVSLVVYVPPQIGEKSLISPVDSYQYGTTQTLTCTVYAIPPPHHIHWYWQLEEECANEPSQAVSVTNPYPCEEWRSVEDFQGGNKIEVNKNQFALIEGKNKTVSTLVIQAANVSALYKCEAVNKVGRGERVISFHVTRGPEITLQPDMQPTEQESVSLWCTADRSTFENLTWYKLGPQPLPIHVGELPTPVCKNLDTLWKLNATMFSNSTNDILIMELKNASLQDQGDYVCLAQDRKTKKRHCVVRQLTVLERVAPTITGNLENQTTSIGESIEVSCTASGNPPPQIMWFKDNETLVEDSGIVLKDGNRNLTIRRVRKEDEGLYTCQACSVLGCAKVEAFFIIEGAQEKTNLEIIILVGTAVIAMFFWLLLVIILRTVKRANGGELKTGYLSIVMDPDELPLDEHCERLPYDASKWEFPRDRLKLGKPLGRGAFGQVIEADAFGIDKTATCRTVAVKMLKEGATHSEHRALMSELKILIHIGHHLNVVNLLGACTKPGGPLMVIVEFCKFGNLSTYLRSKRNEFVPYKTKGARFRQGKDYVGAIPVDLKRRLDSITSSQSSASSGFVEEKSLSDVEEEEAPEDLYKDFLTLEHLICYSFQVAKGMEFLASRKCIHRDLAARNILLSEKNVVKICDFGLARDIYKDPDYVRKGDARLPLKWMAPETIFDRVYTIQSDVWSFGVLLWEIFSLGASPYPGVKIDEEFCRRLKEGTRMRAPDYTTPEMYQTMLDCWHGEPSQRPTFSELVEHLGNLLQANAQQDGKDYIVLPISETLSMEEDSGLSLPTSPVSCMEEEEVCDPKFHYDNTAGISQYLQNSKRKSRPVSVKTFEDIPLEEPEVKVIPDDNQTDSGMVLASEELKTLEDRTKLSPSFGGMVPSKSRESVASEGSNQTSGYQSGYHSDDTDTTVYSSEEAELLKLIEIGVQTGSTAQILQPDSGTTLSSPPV
Experimental: as §1

T1 sequence (P78362 whole entry): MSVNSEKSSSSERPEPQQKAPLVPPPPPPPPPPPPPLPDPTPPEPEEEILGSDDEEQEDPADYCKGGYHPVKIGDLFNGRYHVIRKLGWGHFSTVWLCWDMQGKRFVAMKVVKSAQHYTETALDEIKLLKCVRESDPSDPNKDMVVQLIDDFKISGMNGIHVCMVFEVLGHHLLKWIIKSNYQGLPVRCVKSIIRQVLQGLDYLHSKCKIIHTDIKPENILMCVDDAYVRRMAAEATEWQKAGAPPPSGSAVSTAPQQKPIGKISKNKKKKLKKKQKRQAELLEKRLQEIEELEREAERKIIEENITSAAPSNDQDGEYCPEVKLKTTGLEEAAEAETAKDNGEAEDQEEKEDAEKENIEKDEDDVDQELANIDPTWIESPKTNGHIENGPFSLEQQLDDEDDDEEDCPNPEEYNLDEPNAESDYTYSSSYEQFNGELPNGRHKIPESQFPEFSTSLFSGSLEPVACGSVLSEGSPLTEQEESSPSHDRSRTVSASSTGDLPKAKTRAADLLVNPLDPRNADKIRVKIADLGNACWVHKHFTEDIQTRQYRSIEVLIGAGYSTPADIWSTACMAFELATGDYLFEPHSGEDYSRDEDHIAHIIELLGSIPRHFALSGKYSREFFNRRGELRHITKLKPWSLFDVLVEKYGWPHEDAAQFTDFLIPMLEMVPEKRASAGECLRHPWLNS

Row | SMILES | Residual activity (SRPK2; 1.0E-05 M) | Residual activity (SRPK2; 1.0E-06 M) | Residual activity (MARK2; 1.0E-05 M) | Residual activity (MARK2; 1.0E-06 M) | Residual activity (AMPKalpha1; 1.0E-05 M) | Residual activity (AMPKalpha1; 1.0E-06 M) | Residual activity (CDC42BPB; 1.0E-05 M) | Residual activity (CDC42BPB; 1.0E-06 M) | Residual activity (ASK1; 1.0E-05 M) | Residual activity (ASK1; 1.0E-06 M) | Residual activity (TXK; 1.0E-05 M) | Residual activity (TXK; 1.0E-06 M) | Residual activity (JNK1; 1.0E-05 M) | Residual activity (JNK1; 1.0E-06 M) | Residual activity (CDK1/CycA2; 1.0E-05 M) | Residual activity (CDK1/CycA2; 1.0E-06 M) | Residual activity (MAPKAPK5; 1.0E-05 M) | Residual activity (MAPKAPK5; 1.0E-06 M) | Residual activity (VEGFR2; 1.0E-05 M) | Residual activity (VEGFR2; 1.0E-06 M)
1 | O=C(Cc1ccccc1)Nc1ccc(F)c(Nc2ccc3c(c2)CCCCC3=O)c1 [Compound 100] | 94 % of control | 100 % of control | 104 % of control | 103 % of control | 101 % of control | 112 % of control | 107 % of control | 112 % of control | 85 % of control | 87 % of control | 90 % of control | 100 % of control | 76 % of control | 100 % of control | 83 % of control | 85 % of control | 89 % of control | 127 % of control | 77 % of control | 98 % of control
2 | O=C(Nc1ccc(F)c(Nc2ccc3c(c2)CCCCC3=O)c1)c1cccc(F)c1 [Compound 109] | 102 % of control | 111 % of control | 99 % of control | 107 % of control | 98 % of control | 99 % of control | 110 % of control | 106 % of control | 88 % of control | 87 % of control | 97 % of control | 97 % of control | 81 % of control | 90 % of control | 88 % of control | 86 % of control | 97 % of control | 101 % of control | 79 % of control | 84 % of control
